{
  "source": "paper PMC10649961",
  "about": "“Novel Mitochondria-Targeted Amphiphilic Aminophosphonium Salts and Lipids Nanoparticles: Synthesis, Antitumor Activity and Toxicity” (Nanomaterials, 2023)",
  "key": {"[1]": {"test_system": "Staphylococcus aureus ATCC 6538 P FDA 209P", "experiment": "Antimicrobial activity, serial microdilutions, Sa", "type": "cell-based", "settings": "Staphylococcus aureus", "procedure,_shortened": "(§1)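 Compounds were serially diluted in broth: Mueller-Hinton for the bacterial strains, Sabouraud for the yeast. Each determination was done in triplicate.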"}, "[2]": {"test_system": "Bacillus cereus ATCC 10702 NCTC 8035", "experiment": "Antimicrobial activity, serial microdilutions, Bc", "type": "cell-based", "parameters": "key to Minimum bactericidal and fungicidal concentrations (MBC, MFC): – means non-active", "settings": "Bc", "procedure,_shortened": "(§2)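 Serial microdilution in Mueller-Hinton broth for bacteria and Sabouraud broth for yeast. MRSA-1 is a clinical methicillin-resistant S. aureus isolate from a chronic tonsillitis patient. Run in triplicate.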"}, "[3]": {"test_system": "Enterococcus faecalis ATCC 29212", "experiment": "Antimicrobial activity, serial microdilutions, Ef", "type": "cell-based", "parameters": "key to Minimum Inhibitory Concentration (MIC) / Minimum bactericidal and fungicidal concentrations (MBC, MFC): – means non-active", "procedure,_shortened": "as §1"}, "MRSA-1": {"test_system": "MRSA-1", "experiment": "Antimicrobial activity, serial microdilutions, MRSA-1", "type": "cell-based, S. aureus", "settings": "Staphylococcus aureus", "procedure,_shortened": "as §2"}, "MRSA-2": {"test_system": "MRSA-2", "experiment": "Antimicrobial activity, serial microdilutions, MRSA-2", "type": "cell-based, S. aureus", "settings": "Staphylococcus aureus", "procedure,_shortened": "as §1"}, "[4]": {"test_system": "Escherichia coli ATCC 25922", "experiment": "Antimicrobial activity, serial microdilutions, Ec", "type": "cell-based", "parameters": "key to Minimum Inhibitory Concentration (MIC) / Minimum bactericidal and fungicidal concentrations (MBC, MFC): – means non-active", "procedure,_shortened": "as §2"}, "[5]": {"test_system": "Pseudomonas aeruginosa ATCC 9027", "experiment": "Antimicrobial activity, serial microdilutions, Pa", "type": "cell-based", "parameters": "key to Minimum Inhibitory Concentration (MIC) / Minimum bactericidal and fungicidal concentrations (MBC, MFC): – means non-active", "procedure,_shortened": "as §2"}, "[6]": {"test_system": "Candida albicans ATCC 10231", "experiment": "Antimicrobial activity, serial microdilutions, Ca", "type": "cell-based", "parameters": "key to Minimum Inhibitory Concentration (MIC) / Minimum bactericidal and fungicidal concentrations (MBC, MFC): – means non-active", "settings": "Ca", "procedure,_shortened": "as §2"}, "M-HeLa [7]": {"test_system": "M-HeLa", "settings": "calculated relative to the cell line Chang liver (b)"}, "MCF-7 [8]": {"test_system": "MCF-7", "settings": "calculated relative to the cell line Chang liver (b)"}, "HuTu 80 [9]": {"test_system": "HuTu 80", "settings": "calculated relative to the cell line Chang liver (b)"}, "PANC-1 [10]": {"test_system": "PANC-1", "settings": "calculated relative to the cell line Chang liver (b)"}, "A549 [11]": {"test_system": "A549", "settings": "reference normal cell line not marked at the place (ns cells)"}, "PC3": {"test_system": "PC3", "settings": "reference normal cell line not marked at the place (ns cells)"}, "T98G [12]": {"test_system": "T98G", "settings": "reference normal cell line not marked at the place (ns cells)"}, "Hep G2 [13]": {"test_system": "Hep G2", "settings": "calculated relative to the cell line Chang liver (b)"}, "SK-OV-3 [14]": {"test_system": "SK-OV-3", "settings": "reference normal cell line not marked at the place (ns cells)"}, "DU-145 [15]": {"test_system": "DU-145", "settings": "reference normal cell line not marked at the place (ns cells)"}, "M-HeLa [16]": {"test_system": "M-HeLa", "experiment": "cells", "settings": "Homo sapiens, 48 h, read-out: Cytotoxic Effects (IC50)"}, "MCF-7 [17]": {"test_system": "MCF-7", "experiment": "cells", "settings": "Homo sapiens, MCF7, 48 h, read-out: Cytotoxic Effects (IC50)"}, "HuTu 80 [18]": {"test_system": "HuTu 80", "experiment": "cells", "settings": "Homo sapiens, HuTu80, 48 h, read-out: Cytotoxic Effects (IC50)"}, "PANC-1 [19]": {"test_system": "PANC-1", "experiment": "cells", "settings": "Homo sapiens, PANC-1, 48 h, read-out: Cytotoxic Effects (IC50)"}, "A549 [20]": {"test_system": "A549", "experiment": "cells", "settings": "Homo sapiens, A549, 48 h, read-out: Cytotoxic Effects (IC50)"}, "T98G [21]": {"test_system": "T98G", "experiment": "cells", "settings": "Homo sapiens, 48 h, read-out: Cytotoxic Effects (IC50)"}, "Hep G2 [22]": {"test_system": "Hep G2", "experiment": "cells", "settings": "Homo sapiens, HepG2, 48 h, read-out: Cytotoxic Effects (IC50)"}, "SK-OV-3 [23]": {"test_system": "SK-OV-3", "experiment": "cells", "settings": "Homo sapiens, SK-OV-3, 48 h, read-out: Cytotoxic Effects (IC50)"}, "DU-145 [24]": {"test_system": "DU-145", "experiment": "cells", "settings": "Homo sapiens, DU-145, 48 h, read-out: Cytotoxic Effects (IC50), DU-145, MTT assay, 48 h"}, "[25]": {"settings": "read-out: Minimum Inhibitory Concentration (MIC)"}, "[26]": {"settings": "read-out: Minimum bactericidal and fungicidal concentrations (MBC, MFC)"}},
  "data": [
    {"smiles": "CCCCCCCC[P+](N(CC)CC)(N(CC)CC)N(CC)CC", "note": "[4b, Tris(diethylamino)(octyl)phosphonium iodide]", "values": [
      {"measurement": "MIC", "setting": "[1]; [25]", "value": "15.6 ± 1.3", "unit": "µM"},
      {"measurement": "MBC", "setting": "[1]; [26]", "value": "31.3 ± 2.3", "unit": "µM"},
      {"measurement": "MIC", "setting": "[2]; Bacillus cereus, read-out: Minimum Inhibitory Concentration (MIC)", "value": "7.8 ± 0.7", "unit": "µM"},
      {"measurement": "Minimum bactericidal and fungicidal concentrations (MBC, MFC)", "setting": "[2]", "value": "–"},
      {"measurement": "Minimum bactericidal and fungicidal concentrations (MBC, MFC)", "setting": "[3]", "value": "–"},
      {"measurement": "MIC", "setting": "[3]; Enterococcus faecalis, ATCC29212, read-out: Minimum Inhibitory Concentration (MIC)", "value": "250 ± 19", "unit": "µM"},
      {"measurement": "MIC", "setting": "MRSA-1; [25]", "value": "15.6 ± 0.3", "unit": "µM"},
      {"measurement": "MBC", "setting": "MRSA-1; [26]", "value": "500 ± 47", "unit": "µM"},
      {"measurement": "MIC", "setting": "MRSA-2; [25]", "value": "15.6 ± 1.2", "unit": "µM"},
      {"measurement": "MBC", "setting": "MRSA-2; [26]", "value": "125 ± 9", "unit": "µM"},
      {"measurement": "Minimum Inhibitory Concentration (MIC)", "setting": "[4]", "value": "–"},
      {"measurement": "Minimum bactericidal and fungicidal concentrations (MBC, MFC)", "setting": "[4]", "value": "–"},
      {"measurement": "Minimum Inhibitory Concentration (MIC)", "setting": "[5]", "value": "–"},
      {"measurement": "Minimum bactericidal and fungicidal concentrations (MBC, MFC)", "setting": "[5]", "value": "–"},
      {"measurement": "Minimum Inhibitory Concentration (MIC)", "setting": "[6]", "value": "–"},
      {"measurement": "Minimum bactericidal and fungicidal concentrations (MBC, MFC)", "setting": "[6]", "value": "–"},
      {"measurement": "selectivity index (SI)", "setting": "M-HeLa [7]", "value": 2.2},
      {"measurement": "selectivity index (SI)", "setting": "MCF-7 [8]", "value": 1.4},
      {"measurement": "selectivity index (SI)", "setting": "HuTu 80 [9]", "value": 1.3},
      {"measurement": "selectivity index (SI)", "setting": "PANC-1 [10]", "value": 1.7},
      {"measurement": "selectivity index (SI)", "setting": "A549 [11]", "value": "ns (ns—no selectivity)"},
      {"measurement": "selectivity index (SI)", "setting": "PC3", "value": "ns (ns—no selectivity)"},
      {"measurement": "selectivity index (SI)", "setting": "T98G [12]", "value": "ns (ns—no selectivity)"},
      {"measurement": "selectivity index (SI)", "setting": "Hep G2 [13]", "value": 1.4},
      {"measurement": "selectivity index (SI)", "setting": "SK-OV-3 [14]", "value": "ns (ns—no selectivity)"},
      {"measurement": "selectivity index (SI)", "setting": "DU-145 [15]", "value": "ns (ns—no selectivity)"},
      {"measurement": "IC50", "setting": "M-HeLa [16]", "value": "1800 ± 100", "unit": "nM"},
      {"measurement": "IC50", "setting": "MCF-7 [17]", "value": "2900 ± 200", "unit": "nM"},
      {"measurement": "IC50", "setting": "HuTu 80 [18]", "value": "3.2 ± 0.2", "unit": "µM"},
      {"measurement": "IC50", "setting": "PANC-1 [19]", "value": "2300 ± 100", "unit": "nM"},
      {"measurement": "IC50", "setting": "A549 [20]", "value": "15.4 ± 1.2", "unit": "µM"},
      {"measurement": "IC50", "setting": "T98G [21]", "value": "5.9 ± 0.4", "unit": "µM"},
      {"measurement": "IC50", "setting": "Hep G2 [22]", "value": "2900 ± 200", "unit": "nM"},
      {"measurement": "IC50", "setting": "SK-OV-3 [23]", "value": "26.3 ± 1.8", "unit": "µM"},
      {"measurement": "IC50", "setting": "DU-145 [24]", "value": "4.2 ± 0.3", "unit": "µM"}
    ]}
  ]
}
